For data set [1], the system named is P388/MTX. Description: Survival of P388/MTX (MTX-resistant P388) bearing mice, in vivo. The arrangement: species or system murine. As to conditions: ip; for survival time: control 17.2 days; for % T/C: survival time. The text has this:
(§1) Comparison of the Response of Murine P388/0
(§2) ^a Implant: ip, 10^6 cells; method described by Geran et al,
(§3) Cancer Chemother. Rep. Part 3, Vol. 3 (2) (1972).

In data set [2] the test system is L1210 cells. Put plainly: Mediated transport (influx, efflux) in L1210 cells. It is filed as cell-based. Conditions: n = 3-4, SE; for Km: influx. From the text:
(§4) (a) Methods are described by Sirotnak et al, "Molecular Actions and
(§5) Targets for Cancer Chemotherapy Agents", Sartorelli, A.C. Ed., Academic
(§6) Press., New York, pps. 349-383 (1981); Sirotnak et al, Biochem.
(§7) Pharmacol., Vol. 29, p. 3293 (1980); and Sirotnak et al, Cancer Res., Vol

The test system of data set [3] is L1210 cells. Description: L1210 cell growth inhibition in culture. The class given is cell-based. As to conditions: for IC50: Mus musculus; for potency in the L1210 cell growth inhibition test relative to 5-deazamethotrexate: compared with 5-deazamethotrexate; for potency in the L1210 cell growth inhibition test relative to MTX: compared with MTX.
Source text: as §4, §5, §6, §7

In data set [4] the test system is L1210 cells. Put plainly: Rate of net polyglutamate formation in L1210 cells. It is filed as cell-based. As to conditions: for order of initial rates of polyglutamate accumulation: comparable rates of drug entry; for Rate of net polyglutamate formation: conditions of comparable rates of drug entry.
The subject of data set [5] is P388/0. Put plainly: Survival of P388/0 bearing mice, in vivo. The arrangement: species or system murine. Conditions: for survival time: P388/0, ip, control 10.8 days; for % T/C: P388/0, survival time, ip.
Source text: as §1, §2, §3

The subject of data set [6] is EO771 mammary adenocarcinoma. Put plainly: Antitumor effects against the EO771 mammary adenocarcinoma in mice. The class given is in vivo. Conditions: once per day for five days; for T/C (tumor volume treated/control) / tumor free total / AWC (average weight change): day 7; for toxic deaths total: day 7, 14 or 21; for ave. tumor vol.: day 7, ± SE, control 225 ± 60; for tumor free total: control 0/14. From the text: 5-Methyl-5-Deazamethotrexate (20) Against the EO771
Mammary Adenocarcinoma. Average of Two Separate
Experiments (5 Mice/Group) ± SE of the Mean.
^1 given once per day for five days starting one day after tumor
^2 average weight change on day 7 (one day after cessation of therapy
^3 assessed on day 7, 14 or 21
^4 assessed on day 7 (4/3 πr^3) T/C = treated/control
^5 assessed on day 7 (one day after cessation of therapy)

Where [7] appears, read: read-out: Cell Growth inhibn IC50 (n = 4) ± SE, L1210 cells, n = 4, ± SE.
The mark [8] stands for this setting: qd 1-5, optimal dose 0.25 mg/kg.

Like-named read-outs stand apart in the source and are kept apart here.

Take `CN(Cc1cnc2nc(N)nc(N)c2c1)c1ccc(C(=O)N[C@@H](CCC(=O)O)C(=O)O)cc1` [Compound 5-dMTX, 5-deazamethotrexate, reference compound]: in data set [1] (qd 1-5, optimal dose 4 mg/kg), the survival time was determined as 20.3 days and the “% T/C” value was found to be 118%. In data set [2], the “Mediated Transport efflux k + SE” value amounted to 0.28 ± 0.04 min⁻¹ and the Km was found to be 4 ± 0.5 µM. For the same compound, the IC50 in data set [3] (setting [7]) stood at 2850 ± 300 pM. In data set [4], the “order of initial rates of polyglutamate accumulation” value (“order” for short) was “AMT>5-Me-5-dAMT>5-dAMT>MTX>5-dMTX>5-Me5-dMTX” and the “Rate of net polyglutamate formation” value stood at 48.8 pM/min/g dry wt. Further, in data set [5] (qd 1-5, optimal dose 4 mg/kg), the survival time stood at 18.0 days and the “% T/C” value was 166%.
Take `CCOC(=O)CC[C@H](NC(=O)c1ccc(NCc2cnc3nc(N)nc(N)c3c2)cc1)C(=O)OCC` [Compound 9, N-[4-[[(2,4-Diaminopyrido[2,3-d]pyrimidin-6-yl)methyl]-amino]benzoyl]-L-glutamic Acid Diethyl Ester]: the survival time was 20.8 days in data set [1] (qd 1-5, optimal dose 1 mg/kg) and 16.2 days in data set [5] (qd 1-5, optimal dose 1 mg/kg). The “% T/C” value is given as 120% in data set [1] (qd 1-5, optimal dose 1 mg/kg) and 151% in data set [5] (qd 1-5, optimal dose 1 mg/kg).
In the case of `Nc1nc(N)c2cc(CNc3ccc(C(=O)N[C@@H](CCC(=O)O)C(=O)O)cc3)cnc2n1` [Compound 11], in data set [1] (qd 1-5, optimal dose 2 mg/kg), the survival time amounted to 21.8 days and the “% T/C” value was found to be 126%. Moreover, in data set [2], the “Mediated Transport efflux k + SE” value came out at 0.30 ± 0.04 min⁻¹ and the Km was 1.1 ± 0.2 µM. For the same compound, the IC50 in data set [3] (setting [7]) worked out at 630 ± 70 pM. In addition, in data set [4], the “order” value is listed as “AMT>5-Me-5-dAMT>5-dAMT>MTX>5-dMTX>5-Me5-dMTX” and the “Rate of net polyglutamate formation” value came to 84.2 pM/min/g dry wt. Also, in data set [5] (qd 1-5, optimal dose 0.5 mg/kg), the survival time is recorded as 15.8 days and the “% T/C” value is 146%.
Take `Cc1c(CNc2ccc(C(=O)N[C@@H](CCC(=O)O)C(=O)O)cc2)cnc2nc(N)nc(N)c12` [Compound 12]: in data set [1] (qd 1-5, optimal dose 0.5 mg/kg), the survival time is 20.8 days and the “% T/C” value came out at 120%. In addition, in data set [2], the “Mediated Transport efflux k + SE” value came out at 0.26 ± 0.05 min⁻¹ and the Km was determined as 1.2 ± 0.2 µM. For the same compound, the IC50 in data set [3] (L1210, read-out: Cell Growth inhibn IC50 (n = 4) ± SE) was 1290 ± 200 pM. In addition, in data set [4], the “order” value was “AMT>5-Me-5-dAMT>5-dAMT>MTX>5-dMTX>5-Me5-dMTX” and the “Rate of net polyglutamate formation” value came out at 98.3 pM/min/g dry wt. Besides, in data set [5] (qd 1-5, optimal dose 0.5 mg/kg), the survival time is 16.4 days and the “% T/C” value worked out at 151%.
As to `Cc1c(CN(C)c2ccc(C(=O)N[C@@H](CCC(=O)O)C(=O)O)cc2)cnc2nc(N)nc(N)c12` [Compound 20, N-[4-[[2,4-Diamino-5-methylpyrido[2,3-d]pyrimidin-6-yl)methyl]methylamino]benzoyl-L-glutamic Acid], in data set [1] (setting [8]), the survival time was 20.8 days and the “% T/C” value came to 120%. Besides, in data set [2], the “Mediated Transport efflux k + SE” value was found to be 0.31 ± 0.05 min⁻¹ and the Km worked out at 3.2 ± 0.4 µM. Also, the IC50 in data set [3] (setting [7]) is 240 ± 30 pM. Moreover, in data set [3], the “potency in the L1210 cell growth inhibition test relative to 5-deazamethotrexate” value is “more than 10 times” and the “potency in the L1210 cell growth inhibition test relative to MTX” value was found to be 10 times. Moreover, in data set [4], the “order” value is given as “AMT>5-Me-5-dAMT>5-dAMT>MTX>5-dMTX>5-Me5-dMTX” and the “Rate of net polyglutamate formation” value was determined as 42.9 pM/min/g dry wt. Besides, in data set [6] (0.375 mg/kg), the “T/C (tumor volume treated/control)” value is recorded as 0.25, the toxic deaths total is given as 0/10, the ave. tumor vol. turned out to be 50 ± 16 mm^3 and the tumor free total is 0/10. Also, in data set [6] (0.75 mg/kg), the “T/C (tumor volume treated/control)” value is 0.13, the toxic deaths total is given as 0/10, the ave. tumor vol. was 35 ± 10 mm^3 and the tumor free total is reported as 1/10. Besides, in data set [6] (1.5 mg/kg), the “T/C (tumor volume treated/control)” value worked out at 0.03, the toxic deaths total is listed as 0/10, the ave. tumor vol. worked out at 4 ± 2 mm^3 and the tumor free total was 6/10. In addition, in data set [6] (3.0 mg/kg), the “T/C (tumor volume treated/control)” value stood at 0.02, the toxic deaths total was 5/6, the ave. tumor vol. stood at 3 ± 1 mm^3 and the tumor free total result is “toxic”. Besides, in data set [5] (qd 1-5, optimal dose 1 mg/kg), the survival time stood at 19.7 days and the “% T/C” value is 182%.
In the case of `CCN(Cc1cnc2nc(N)nc(N)c2c1C)c1ccc(C(=O)N[C@@H](CCC(=O)O)C(=O)O)cc1` [Compound 21], in data set [2], the “Mediated Transport efflux k + SE” value is 0.29 ± 0.04 min⁻¹ and the Km was 3.3 ± 0.5 µM. For the same compound, in data set [3] (setting [7]), the IC50 worked out at 260 ± 20 pM. In addition, in data set [3], the “potency in the L1210 cell growth inhibition test relative to 5-deazamethotrexate” value is “more than 10 times” and the “potency in the L1210 cell growth inhibition test relative to MTX” value is given as 10 times.
Take `CN(Cc1cnc2nc(N)nc(N)c2n1)c1ccc(C(=O)N[C@@H](CCC(=O)O)C(=O)O)cc1` [MTX, Methotrexate, reference compound]: in data set [1] (qd 1-5, optimal dose 3.5 mg/kg), the survival time was 20.3 days and the “% T/C” value is given as 118%. Moreover, in data set [2], the “Mediated Transport efflux k + SE” value is 0.33 ± 0.06 min⁻¹ and the Km was determined as 3.3 ± 0.7 µM. Also, in data set [4], the “order” value is reported as “AMT>5-Me-5-dAMT>5-dAMT>MTX>5-dMTX>5-Me5-dMTX”. In data set [6] (1.5 mg/kg), the “AWC (average weight change)” value is given as “+0.9 g”, the “T/C (tumor volume treated/control)” value was 0.60, the toxic deaths total was 0/10 and the ave. tumor vol. is recorded as 102 ± 32 mm^3. The tumor free total in data set [6] (1.5 mg/kg) is 1/10. For the same compound, in data set [6] (3.0 mg/kg), the “AWC (average weight change)” value is on record as -0.2 g, the “T/C (tumor volume treated/control)” value came to 0.61, the toxic deaths total is given as 0/10 and the ave. tumor vol. came to 108 ± 24 mm^3. In addition, the tumor free total in data set [6] (3.0 mg/kg) is recorded as 1/10. Also, in data set [6] (6.0 mg/kg), the “AWC (average weight change)” value is given as -2.1 g, the “T/C (tumor volume treated/control)” value came out at 0.12, the toxic deaths total was 4/10 and the ave. tumor vol. was found to be 22 ± 5 mm^3. In addition, the tumor free total entry in data set [6] (6.0 mg/kg) is recorded as “toxic”. For the same compound, in data set [5] (qd 1-5, optimal dose 4 mg/kg), the survival time came out at 19.7 days and the “% T/C” value is 182%.

The record behind these values is patent US4725687A (priority 1986, dated 1988).
